A short description of the test: Antagonist activity at AR in mouse SC3 cells assessed as inhibition of DHT-induced cell proliferation after 3 days by CCK8 assay. A general note: Tetrazolium assays rely on reduction of a dye to a coloured formazan, in cell work by metabolically active cells.
With `COc1cccc(C(=O)Nc2ccc(Oc3ccc(O)cc3)c(Cl)c2)c1`, the IC50 (in general, the concentration at which inhibition is half-maximal) is 0.48 µM.

Take `COc1cccc(C(=O)Nc2cccc(Oc3cccc(O)c3)c2)c1`: the IC50 is above 10 µM. For `COc1ccc(C(=O)Nc2cccc(Oc3ccc(O)cc3)c2)cc1` the value was above 10 µM. Consider `COc1ccccc1C(=O)Nc1cccc(Oc2ccc(O)cc2)c1`, for which the IC50 is above 10 µM. For `COc1cccc(C(=O)Nc2ccc(Oc3ccc(O)cc3)c(C(F)(F)F)c2)c1` the value was 4.3 µM. For `COc1cccc(C(=O)Nc2ccc(Oc3ccc(O)cc3)c(Br)c2)c1` the value was 5.7 µM. For `COc1ccccc1C(=O)Nc1ccc(C)c(Oc2ccc(O)cc2)c1` the value was 5.3 µM. For `CN(C)c1ccc(C(=O)Nc2ccc(Oc3cccc(O)c3)cc2)cc1`, the IC50 came out at 3.2 µM. For `CN(C)c1ccc(C(=O)Nc2cccc(Oc3ccc(O)cc3)c2)cc1` the value was 7.4 µM; for `COc1cccc(C(=O)Nc2ccc(Oc3ccc(O)cc3)cc2OC)c1`, 3.4 µM. For `COc1cccc(C(=O)Nc2cc(F)c(Oc3ccc(O)cc3)c(F)c2)c1` the value was 0.51 µM; for `COc1cccc(C(=O)Nc2ccc(Oc3ccc(O)cc3)cc2Cl)c1`, 1.7 µM; for `COc1ccc(C(=O)Nc2cccc(Oc3ccc(O)cc3)c2C)cc1`, above 10 µM. As for `COc1cccc(C(=O)N(C)c2ccc(Oc3ccc(O)cc3)c(C)c2)c1`, the IC50 was 7.6 µM. As for `COc1cccc(C(=O)Nc2ccc(Oc3ccc(O)cc3)cc2C)c1`, the IC50 was 3 µM. For `COc1cccc(C(=O)Nc2ccc(Oc3cccc(O)c3)cc2)c1` the value was above 10 µM. For the compound `COc1ccc(C(=O)Nc2cccc(Oc3cccc(O)c3)c2)cc1`, the IC50 was above 10 µM. With `COc1cccc(C(=O)Nc2ccc(Oc3ccc(O)cc3)cc2F)c1`, the IC50 worked out at 0.65 µM. For `CN(C)c1ccccc1C(=O)Nc1cccc(Oc2ccc(O)cc2)c1` the value was 6.3 µM; for `COc1cccc(C(=O)Nc2cc(Cl)c(Oc3ccc(O)cc3)c(Cl)c2)c1`, 0.48 µM. For `COc1ccc(C(=O)Nc2ccc(C)c(Oc3ccc(O)cc3)c2)cc1` the value was above 10 µM. For `COc1ccc(C(=O)Nc2cc(Oc3ccc(O)cc3)ccc2C)cc1` the value was above 10 µM; for `COc1cccc(C(=O)Nc2ccc(Oc3ccc(O)cc3)c(F)c2F)c1`, 0.53 µM. `CN(C)c1cccc(C(=O)Nc2cccc(Oc3cccc(O)c3)c2)c1`: the IC50 was above 10 µM. For `COc1cccc(C(=O)Nc2ccc(Oc3ccc(O)cc3)c(F)c2)c1` the value was 0.4 µM.

The record behind these values is BindingDB's records for doi:10.1016/j.bmc.2018.09.008 (Ochanomizu University, 2018).
